Values quoted from earlier work as cited in patent US12100485B2, “Machine learning and molecular simulation based methods for enhancing binding and activity prediction” (The Board of Trustees of the Leland Stanford Junior …, priority 2018, dated 2024).
Where two headings read alike, the source gives them in different places.

Test system: μOR
[1] = known pharmacology, training dataset

Compound	Action	Action [1]
CO[C@@]12CCC(=O)[C@@H]3Oc4c(O)ccc5c4[C@@]31CCN(C)[C@@H]2C5 [14-methoxydihydromorphinone]	agonist	
NC(=O)c1ccc2c(c1O)[C@]13CCN(CC4CC4)[C@H](C2)[C@]1(O)CCC(=O)C3 [samidorphan]	Antagonists	
CCOC(=O)C1(c2ccccc2)CCN(CCOCC2CCCO2)CC1 (stereo not shown) [furethidine]	agonist	
CCOC(=O)C1(c2ccccc2)CCN(CC(O)c2ccccc2)CC1 (stereo not shown) [oxpheneridine]	agonist	
CN(C)[C@H](Cc1ccccc1)c1ccccc1 [lefetamine]	agonist	
C=CCN1CC[C@]23c4c5ccc(O)c4O[C@H]2/C(=N\N)CC[C@@]3(O)[C@H]1C5 [naloxazone]	Antagonists	
CCC(=O)OC1(c2ccccc2)CC(C)N(C)CC1C (stereo not shown) [trimeperidine]	agonist	
CCC(=O)O[C@]1(c2ccccc2)CCN(C)C[C@@H]1CC [meprodine]	agonist	
Oc1ccc2c(c1)[C@@]13CCCC[C@H]1[C@@H](C2)N(CCc1ccccc1)CC3 [phenomorphan]	agonist	
CC[C@H](O)C(C[C@@H](C)N(C)C)(c1ccccc1)c1ccccc1 [betamethadol]	agonist	
C=CCN1CC[C@]23c4c5ccc(O)c4O[C@H]2[C@@H](OCCOCCOCCOCCOCCOCCOCCOC)CC[C@@]3(O)[C@H]1C5 [naloxegol]	Antagonists	
CCC(=O)C(c1ccccc1)(c1ccccc1)C(C)CN(C)C (stereo not shown) [isomethadone]	agonist	
CC(C)C[C@@H](NC(=O)[C@H](Cc1ccccc1)NC(=O)CNC(=O)[C@@H](C)NC(=O)[C@@H](N)Cc1ccc(O)cc1)C(=O)O [dadle]	agonist	
COc1cccc2c1[C@]13CCN(CC4CC4)[C@H](C2)[C@]1(OC)CCC(=O)C3 [cyprodime]	antagonist	
NC(=O)c1cccc([C@H]2C[C@H]3CC[C@@H](C2)N3CCN(CC2CCCCC2)C(=O)[C@@H](O)CO)c1 [axelopran]	antagonist	
O=C(CN1CC[C@]23CCCC[C@H]2[C@H]1Cc1ccc(O)cc13)c1ccccc1 [levophenacylmorphan]	agonist	
CC[C@H](OC(C)=O)C(C[C@@H](C)N(C)C)(c1ccccc1)c1ccccc1 [betacetylmethadol]	agonist	
CN(C)CC(C)(C)C(=O)c1ccccc1 [dimethylaminopivalophenone]		agonist
CCC(=O)C(CC(C)N(C)C)(c1ccccc1)c1ccccc1 (stereo not shown) [methadone]	agonist	
O=C(N[C@@H]1CC[C@@]2(O)[C@H]3Cc4ccc(O)c5c4[C@@]2(CCN3CC2CC2)[C@H]1O5)c1cccc(I)c1 [ibntxa]	agonist	
CN(C)C(=O)C(CCN1CCC(O)(c2ccc(Cl)cc2)CC1)(c1ccccc1)c1ccccc1 [loperamide]	agonist	
endomorphin-1	agonist	
C[C@H]1CN(CC[C@H](O)C2CCCCC2)CC[C@@]1(C)c1cccc(O)c1 [ly-255582]	antagonist	
COc1ccc2c3c1O[C@H]1[C@@H](O)CC[C@H]4[C@@H](C2)N(C)CC[C@@]341 [methyldihydromorphine]	agonist	
CCOC(=O)C1(c2ccccc2)CCN(CCOCCO)CC1 [etoxeridine]	agonist	
C=CCC1CN(C)CCC1(OC(=O)CC)c1ccccc1 (stereo not shown) [allylprodine]	agonist	
C=C1CC[C@@]2(O)[C@H]3Cc4ccc(O)c5c4[C@@]2(CCN3CC2CC2)[C@H]1O5 [nalmefene]		Antagonists

Compound	Action	Action [1]
endomorphin-2	agonist	
CCC(OC(C)=O)C(CC(C)N(C)C)(c1ccccc1)c1ccccc1 (stereo not shown) [acetylmethadol]	agonist	
CCOC(=O)C1(c2ccccc2)CCN(CCC(O)c2ccccc2)CC1 (stereo not shown) [phenoperidine]	agonist	
CCOC(=O)C1(c2ccccc2)CCN(CCOCc2ccccc2)CC1 [benzethidine]	agonist	
Oc1cccc([C@@]23CCCC[C@H]2CN(CC2CC2)CC3)c1 [ciprefadol]	agonist	
CC1C2Cc3ccc(O)cc3C1(C)CCN2CCc1ccccc1 (stereo not shown) [phenazocine]	agonist	
CCC(=O)C(CC(C)N1CCOCC1)(c1ccccc1)c1ccccc1 (stereo not shown) [phenadoxone]	agonist	
CN1CC[C@]23CCCC[C@H]2[C@H]1Cc1ccc(O)cc13 [levorphanol]	agonist	
CN1CC[C@]23c4c5ccc(O)c4O[C@@]2(C)C(=O)CC[C@H]3[C@H]1C5 [metopon]	agonist	
COCCN1CC[C@]23c4c5ccc(O)c4O[C@H]2C(=O)CC[C@@]3(O)[C@H]1C5 [semorphone]	agonist	
CN1CC[C@]23c4c5ccc(O)c4O[C@H]2[C@@H](O[C@@H]2O[C@H](C(=O)O)[C@@H](O)[C@H](O)[C@H]2O)C=C[C@H]3[C@H]1C5 [morphine-6-glucuronide]	agonist	
CCOC(=O)C(CCN1CCOCC1)(c1ccccc1)c1ccccc1 [dioxaphetyl_butyrate]	agonist	
CCCCCN[C@@]12C=CC(=O)[C@@H]3Oc4c(O)ccc5c4[C@@]31CCN(C)[C@@H]2C5 [pentamorphone]	agonist	
CN1CCC23CCCCC2C1Cc1ccc(O)cc13 (stereo not drawn) [racemorphan]	agonist	
CN1CC[C@]23c4c5ccc(O)c4O[C@H]2C(=O)C=C[C@H]3[C@H]1C5 [morphinone]	agonist	
CCOC(=O)C1(c2cccc(O)c2)CCN(C)CC1 [hydroxypethidine]	agonist	
CCOC(=O)C1(c2ccccc2)CCN(C)CC1 [pethidine]	agonist	
CC[C@H](OC(C)=O)C(C[C@H](C)N(C)C)(c1ccccc1)c1ccccc1 [levacetylmethadol]	agonist	
CNC1(c2ccccc2Cl)CCCCC1=O (stereo not shown) [ketamine]	agonist	
CO[C@H]1C=C[C@H]2[C@H]3Cc4ccc(O)c5c4[C@@]2(CCN3C)[C@H]1O5 [heterocodeine]	agonist	
CCOC(=O)C1(c2ccccc2)CCN(CCN2CCOCC2)CC1 [morpheridine]	agonist	
CCC(OC(C)=O)C(CC(C)NC)(c1ccccc1)c1ccccc1 (stereo not shown) [noracymethadol]	agonist	
CN1CC[C@]23c4c5ccc(O)c4O[C@H]2/C(=N\N)CC[C@@]3(O)[C@H]1C5 [oxymorphazone]	agonist	
C[N@+]1(CC2CC2)CC[C@]23c4c5ccc(O)c4O[C@H]2C(=O)CC[C@@]3(O)[C@H]1C5 [methylnaltrexone]		antagonist
CCC(O)C(CC(C)N(C)C)(c1ccccc1)c1ccccc1 (stereo not shown) [dimepheptanol]	agonist	
CCC(=O)C1(c2cccc(O)c2)CCN(C)CC1 [ketobemidone]	agonist	
CCOC(=O)C1(c2ccccc2)CCCN(C)CC1 (stereo not shown) [ethoheptazine]	agonist	

Compound	Action	Action [1]
CCOC(=O)C1(c2ccccc2)CCC=CC1N(C)C (stereo not shown) [tilidine]	agonist	
N#CC(CCN1CCC(C(=O)O)(c2ccccc2)CC1)(c1ccccc1)c1ccccc1 [difenoxin]	agonist	
CCOC(=O)C1(c2ccccc2)CCN(CCc2ccc(N)cc2)CC1 [anileridine]	agonist	
COC(=O)/C=C/C(=O)N[C@@H]1CC[C@@]2(O)[C@H]3Cc4ccc(O)c5c4[C@@]2(CCN3CC2CC2)[C@H]1O5 [beta-funaltrexamine]	antagonist	
CCOC(=O)C1(c2ccccc2)CCN(CCC(C#N)(c2ccccc2)c2ccccc2)CC1 [diphenoxylate]	agonist	
CN1CC[C@]2(C)c3cc(O)ccc3C[C@H]1C2(C)CCC(=O)CCC1CCCC1 (stereo partly shown) [quadazocine]	Antagonists	
CCOC(=O)C1(c2ccccc2)CCN(CCc2ccccc2)CC1 [pheneridine]	agonist	
CCC(=O)C(C[C@@H](C)N(C)C)(c1ccccc1)c1ccccc1 [levomethadone]	agonist	
CN1CC[C@]23c4c5ccc(O)c4O[C@H]2C(=O)CC[C@@]3(O)[C@H]1C5 [oxymorphone]	agonist	
endomorphin	agonist	
CC1=CC[C@H]2[C@H]3Cc4ccc(O)c5c4[C@@]2(CCN3C)[C@H]1O5 [methyldesorphine]	agonist	
CC(=O)OC1(c2ccccc2)CCN(CCc2ccccc2)CC1 [pepap]	agonist	
N/N=C1/CC[C@@]2(O)[C@H]3Cc4ccc(O)c5c4[C@@]2(CCN3CC2CC2)[C@H]1O5 [naltrexazone]	Antagonists	
Cc1ccc(/C=C/C(=O)N[C@@]23CCC(=O)[C@@H]4Oc5c(O)ccc6c5[C@@]42CCN(CC2CC2)[C@@H]3C6)cc1 [methocinnamox]	antagonist	
C=CCN1CC[C@]23c4c5ccc(O)c4O[C@H]2C(=O)CC[C@@]3(O)[C@H]1C5 [naloxone]		Antagonists
O=C1CC[C@@]2(O)[C@H]3Cc4ccc(O)c5c4[C@@]2(CCN3CC2CC2)[C@H]1O5 [naltrexone]		Antagonists
CC(C)OC(=O)C1(c2ccccc2)CCN(C)CC1 [properidine]	agonist	
C[C@@H](NC(=O)[C@@H](N)Cc1ccc(O)cc1)C(=O)NCC(=O)N(C)[C@@H](Cc1ccccc1)C(=O)NCCO [damgo]	agonist	
CCC(=O)OC1(c2ccccc2)CCN(C)C1C (stereo not shown) [prodilidine]	agonist	
C=CCN1CC[C@]23c4c5ccc(O)c4O[C@H]2/C(=N/N=C2\CC[C@@]4(O)[C@H]6Cc7ccc(O)c8c7[C@@]4(CCN6CC=C)[C@H]2O8)CC[C@@]3(O)[C@H]1C5 [naloxonazine]	Antagonists	
C[C@H]1CN(C[C@H](Cc2ccccc2)C(=O)NCC(=O)O)CC[C@@]1(C)c1cccc(O)c1 [alvimopan]		antagonist
O=C(/C=C/c1ccc(Cl)cc1)N[C@@]12CCC(=O)[C@@H]3Oc4c(O)ccc5c4[C@@]31CCN(CC1CC1)[C@@H]2C5 [clocinnamox]	antagonist	
CN1CC[C@]23c4c5ccc(O)c4O[C@H]2[C@@H](O)CC[C@@]3(O)[C@H]1C5 [hydromorphinol]	agonist	
Oc1ccc2c(c1)[C@@]13CCCC[C@@]1(O)[C@@H](C2)N(CC1CC1)CC3 [oxilorphan]	Antagonists	
Oc1ccc2c3c1O[C@H]1[C@H](F)CC[C@@]4(O)[C@@H](C2)N(CC2CC2)CC[C@]314 [cyclofoxy]	antagonist	
